Source: patent US11458132B2, “Quinolin-2(1H)-one inhibitors of Late SV40 Factor” (TRUSTEES OF BOSTON UNIVERSITY, priority 2020, dated 2022)

Assays:
RPE cells = assay: Wound healing assay; type: cell-based
Description: Wound healing analysis: Confluent RPE cells were synchronized by incubating with 2 mM thymidine for 18-20 hours. Two intersecting lines were drawn into the confluent cells using a pipette tip. A phase-contrast image was acquired of the intersection point (“0 h” time-point) on an Olympus IX50 inverted microscope, immediately followed by treatment with the respective inhibitor and 2 mM thymidine. Phase-contrast images of the intersection point were acquired every 2 hours for 12 hours, continuing incubation at 37° C. in 5% CO2 in-between time points. Using ImageJ, the distances between each pair of neighboring vertices of the intersection point at each time-point were measured and normalized to the “0 h” sample.
RPE-hTERT Flp-In cells, propagated in DME M:F12 media with 10% fetal bovine serum at 37° C. in a 5% CO2 humidified incubator, were grown to confluence in 6-well tissue culture plates. One day prior to performing the wound healing assay, the medium was exchanged to also include 2 mM thymidine, so that the cells would stop dividing.
A cross-shaped wound was scratched into each well, and the cells imaged by phase contrast microscopy using at 4× magnification using a Olympus IX50 Inverted microscope. Then the cell media was exchanged to include vehicle (DMSO at 0.01%), 50 nM FQI2-34, 100 nM FQI2-34, or 200 nM FQI2-34; 2 mM thymidine was maintained throughout, as well. Cells were imaged again at 2 h, 4h, 6h, and 8h, in order to measure the migration of the cells into the wound.
Each of the 4 lines across the vertices of the “X” were individually measured from each set of images using ImageJ. Relative distances of cell migration into the wound were obtained by subtracting each of the lengths for 2-8 hour timepoints from the length at the 0 hour timepoint for that line and that sample. The averages of the four changes in lengths per sample were then plotted over time for each concentration of FQI2-34, from […], using Prism software. Triplicate technical replicates were performed for each concentration.

[1] = tested on: RhoA/ROCK pathway in FH-B cells; assay: Phospho-MLC2 immunoblot (RhoA/ROCK pathway); type: cell-based, human; details: 4 μM FQI1, 10 minutes
Description: For analysis of phosphorylated MLC2, FH-B cells were treated as indicated in the figure legend, washed with PBS and incubated for 5 minutes in lysis buffer (50 mM Tris-HCl pH 8.0, 50 mM NaF, 5 mM MgCl2, 150 mM NaCl, 1% Triton X-100) supplemented with Tricine Sample Buffer (Bio-rad, 1610739), protease inhibitor cocktail (1:200), phosphatase inhibitor cocktail (1:100), and 1% ([…]. Lysates were incubated at 100° C. for 15 minutes and centrifuged at 21,000×g for 10 minutes prior to SDS-PAGE.
Gel electrophoresis and immunoblotting: Microtubule sedimentation fractions and MLC2 analysis samples were separated by electrophoresis through tris-glycine and tricine polyacrylamide gels, respectively, which were transferred to PVDF membranes. Membranes with microtubule sedimentation fractions and MLC2 analysis samples were blocked in 5% milk in TBST and in 5% BSA in TBST, respectively. After overnight incubation with primary antibody at 4° C., the membranes were washed and incubated with secondary antibody for 1 hour at room temperature. Primary antibodies included anti-α-tubulin (1:2,000, Thermo Fisher Scientific, PA529444), anti-acetylated tubulin (1:1,000, Sigma-Aldrich, T7451), anti-phospho MYL9 (1:200, Thermo Fisher Scientific, PA517727), and anti-β-actin (1:5,000, Sigma-Aldrich, A1978). […] Band intensities were quantified from scanned films by densitometry using ImageJ.

[2] = Plasma protein binding (PPB), human; type: in vitro ADME
[3] = tested on: Wnt signaling in HCT-116 cells; assay: Wnt signaling assay (β-catenin-responsive luciferase reporter); type: cell-based; details: overnight
Description: Wnt signaling assay: The CRC cells stably expressing β-catenin-responsive promoter tethered to a luciferase reporter (pBARLS) or a mutant construct (pfuBARLS), as described previously, were seeded in 96-well plates. After 48 h of transfection, luciferase assays was performed using the Dual-Luciferase Kit (Promega) and normalized using protein content determined by the Bradford assay (Bio-Rad) as described previously^26-28.

Compound | time by which inhibition of migration is detectable (RPE cells; 4 μM FQI1) [h] | migration of cells into the wound (RPE cells; 4 μM FQI1 or 1 μM nocodazole, monitored 12 hours) | phosphorylation of MLC2 [1] | fold lower concentration than that used for FQI1 in the same assay (RPE cells) [fold] | concentration that effectively inhibits cell migration (RPE cells; 50, 100, 200 nM tested, 2-8 h) [nM] | fraction unbound [2] | Wnt activity at baseline ([3]; 0.1 μM up to 20 μM) | concentrations that suppressed Wnt activity induced by lithium chloride [3] [µM]
CCOc1ccccc1C1CC(=O)Nc2cc3c(cc21)OCO3 (centres unmarked) [FQI1, 8-(2-ethoxyphenyl)-7,8-dihydro-[1,3]dioxolo[4,5-g]quinolin-6(5H)-one] | ≤ 4 | hindered RPE cells from migrating into the wound | elevated | – | – | – | – | –
CCOc1cc(N(C)C)ccc1-c1cc(=O)[nH]c2cc3c(cc12)OCO3 [FQI2-34, 8-(4-(dimethylamino)-2-ethoxyphenyl)-[1,3]dioxolo[4,5-g]quinolin-6(5H)-one] | – | – | – | 20 | 200 | 0.1 | inhibited Wnt activity in a monotonically decreasing manner | ≥ 0.1
